pKi: −log10 of the molar value. Where two headings read alike, the source gives them in different places. Where a SMILES comes first, the peptide text is derived from it. [ ]: non-standard residue; d: D form.
Biological target: T1, PSD-95-PDZ2 (Homo sapiens, UniProt P78352)
T1 construct: 7xHis (N); made in house; host or cells: Escherichia coli B21 pLys (for the mutants, 'as previously described')
Test: Fluorescence polarization (FP) competition assay against cyclic nNOS TAMRA probe
Assay type: binding
Conditions: for pKi / Ki / effect on interaction with PSD-95-PDZ2 (in words) / fold lowered (decreased) binding affinity of the cyclic peptide: FP competition; for pKi / Ki: cyclic nNOS TAMRA probe, mean of triplicates, N.B. = not binding; for pKi: read-out: Ki; for Relative Ki (Ki mut/Ki WT): FP inhibition constant normalized to WT value; for fold lowered (decreased) binding affinity of the cyclic peptide: relative to unsubstituted cyclic peptide

T1 sequence (P78352 160-246 limits assumed): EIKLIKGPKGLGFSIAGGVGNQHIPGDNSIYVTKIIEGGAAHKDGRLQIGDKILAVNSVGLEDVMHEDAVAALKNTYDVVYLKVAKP

CC[C@H](C)[C@@H]1NC(=O)[C@H]([C@@H](C)O)NC(=O)[C@H](CCCCN)NC(=O)[C@@H]2CCCN2C(=O)[C@@H]([C@H](C)O)NC(=O)CNC(=O)[C@H](CC(=O)O)NC(=O)CNC(=O)[C@H]([C@@H](C)O)NC(=O)[C@H](Cc2ccccc2)NC(=O)[C@H]([C@@H](C)O)NC(=O)[C@H]([C@@H](C)O)NC(=O)[C@H](CCC(=O)O)NC(=O)[C@H](CC(C)C)NC(=O)[C@H](Cc2c[nH]cn2)NC(=O)[C@H]([C@@H](C)O)NC(=O)[C@H](CCC(N)=O)NC(=O)CNC(=O)[C@H]2CCCN2C(=O)[C@H](CCC(N)=O)NC(=O)[C@H]([C@@H](C)O)NC(=O)[C@H](C(C)C)NC(=O)[C@H](CCCNC(=N)N)NC1=O [compound 121]
pKi: 5.70

104 (THLEXTFTGDGTPKTIRVTQPGQ; cyclized peptide; (5)..(5) X is pT; (21)..(21) is D-AA) [compound 104]
Ki: N.B.

CC[C@H](C)[C@@H]1NC(=O)[C@H]([C@@H](C)O)NC(=O)[C@H](CCCCN)NC(=O)[C@@H]2CCCN2C(=O)[C@H](CC(N)=O)NC(=O)CNC(=O)[C@H](CC(=O)O)NC(=O)CNC(=O)[C@H]([C@@H](C)O)NC(=O)[C@H](Cc2ccccc2)NC(=O)[C@H]([C@@H](C)O)NC(=O)[C@H]([C@@H](C)O)NC(=O)[C@H](CCC(=O)O)NC(=O)[C@H](CC(C)C)NC(=O)[C@H](Cc2c[nH]cn2)NC(=O)[C@H]([C@@H](C)O)NC(=O)[C@H](CCC(N)=O)NC(=O)CNC(=O)[C@H]2CCCN2C(=O)[C@H](CCC(N)=O)NC(=O)[C@H]([C@@H](C)O)NC(=O)[C@H](C(C)C)NC(=O)[C@H](CCCNC(=N)N)NC1=O [compound 40] (cyclo(THLETTFTGDGNPKTIRVTQ[dP]GQ))
Relative Ki (Ki mut/Ki WT): 0.34

CC[C@H](C)[C@@H]1NC(=O)[C@H]([C@@H](C)O)NC(=O)[C@H](CCCCN)NC(=O)[C@@H]2CCCN2C(=O)[C@H]([C@@H](C)O)NC(=O)CNC(=O)[C@H](CC(=O)O)NC(=O)CNC(=O)[C@H]([C@@H](C)O)NC(=O)[C@H](Cc2ccccc2)NC(=O)[C@H]([C@@H](C)O)NC(=O)[C@H]([C@@H](C)O)NC(=O)[C@H](CCC(=O)O)NC(=O)[C@H](CC(C)C)NC(=O)[C@H](Cc2c[nH]cn2)NC(=O)[C@H]([C@@H](C)O)NC(=O)[C@H](CCC(N)=O)NC(=O)CNC(=O)[C@H]2CCCN2C(=O)[C@H](CCC(N)=O)NC(=O)[C@H](Cc2ccc(O)cc2)NC(=O)[C@H](C(C)C)NC(=O)[C@H](CCCNC(=N)N)NC1=O [compound 49] (cyclo(THLETTFTGDGTPKTIRVYQ[dP]GQ))
Relative Ki (Ki mut/Ki WT): 1.25

Cyclo-(THLETT ? -Me-FTGDGTPKTIRVTQpG(Qα)) (THLETTXTGDGTPKTIRVTQPGQ; cyclic; N-methyl F111; D-proline; cyclized peptide; (7)..(7) X is N-Me-F; (21)..(21) is D-AA) [SEQ ID NO: 90]
effect on interaction with PSD-95-PDZ2 (in words): abolished the interaction

CC[C@H](C)[C@@H]1NC(=O)[C@H]([C@@H](C)O)NC(=O)[C@H](CCCCN)NC(=O)[C@@H]2CCCN2C(=O)[C@H](Cc2c[nH]c3ccccc23)NC(=O)CNC(=O)[C@H](CC(=O)O)NC(=O)CNC(=O)[C@H]([C@@H](C)O)NC(=O)[C@H](Cc2ccccc2)NC(=O)[C@H]([C@@H](C)O)NC(=O)[C@H]([C@@H](C)O)NC(=O)[C@H](CCC(=O)O)NC(=O)[C@H](CC(C)C)NC(=O)[C@H](Cc2c[nH]cn2)NC(=O)[C@H]([C@@H](C)O)NC(=O)[C@H](CCC(N)=O)NC(=O)CNC(=O)[C@H]2CCCN2C(=O)[C@H](CCC(N)=O)NC(=O)[C@H]([C@@H](C)O)NC(=O)[C@H](C(C)C)NC(=O)[C@H](CCCNC(=N)N)NC1=O [compound 36] (cyclo(THLETTFTGDGWPKTIRVTQ[dP]GQ))
Relative Ki (Ki mut/Ki WT): 0.69

CC[C@H](C)[C@@H]1NC(=O)[C@H]([C@@H](C)O)NC(=O)[C@H](CCCCN)NC(=O)[C@@H]2CCCN2C(=O)[C@H]([C@@H](C)O)NC(=O)[C@@H]2CCCN2C(=O)[C@H](CC(=O)O)NC(=O)CNC(=O)[C@H](Cc2c[nH]c3ccccc23)NC(=O)[C@H](Cc2ccccc2)NC(=O)[C@H]([C@@H](C)O)NC(=O)[C@H]([C@@H](C)O)NC(=O)[C@H](CCC(=O)O)NC(=O)[C@H](CC(C)C)NC(=O)[C@H](Cc2c[nH]cn2)NC(=O)[C@H]([C@@H](C)O)NC(=O)[C@H](CCC(N)=O)NC(=O)CNC(=O)[C@H]2CCCN2C(=O)[C@H](CCC(N)=O)NC(=O)[C@H]([C@@H](C)O)NC(=O)[C@H](C(C)C)NC(=O)[C@H](CCCNC(=N)N)NC1=O [compound 131] (cyclo(THLETTFWGDPTPKTIRVTQ[dP]GQ))
pKi: 6.02

CC[C@H](C)[C@@H]1NC(=O)[C@H]([C@@H](C)O)NC(=O)[C@H](CCCCN)NC(=O)[C@@H]2CCCN2C(=O)[C@H]([C@@H](C)O)NC(=O)CNC(=O)[C@H](CC(=O)O)NC(=O)CNC(=O)[C@H]([C@@H](C)O)NC(=O)[C@H](Cc2ccccc2)NC(=O)[C@H]([C@@H](C)O)NC(=O)[C@H]([C@@H](C)O)NC(=O)[C@H](CCC(=O)O)NC(=O)[C@H](CC(C)C)NC(=O)[C@H](Cc2c[nH]cn2)NC(=O)[C@H]([C@@H](C)O)NC(=O)[C@H](CCC(N)=O)NC(=O)CNC(=O)[C@H]2CCCN2C(=O)[C@H](CCC(N)=O)NC(=O)[C@H](Cc2ccccc2)NC(=O)[C@H](C(C)C)NC(=O)[C@H](CCCNC(=N)N)NC1=O [compound 48] (cyclo(THLETTFTGDGTPKTIRVFQ[dP]GQ))
Relative Ki (Ki mut/Ki WT): 1.05

CC[C@H](C)[C@@H]1NC(=O)[C@H]([C@@H](C)O)NC(=O)[C@H](CCCCN)NC(=O)[C@@H]2CCCN2C(=O)CNC(=O)[C@H](CC(=O)O)NC(=O)CNC(=O)[C@H]([C@@H](C)O)NC(=O)[C@H](Cc2ccccc2)NC(=O)[C@H]([C@@H](C)O)NC(=O)[C@H]([C@@H](C)O)NC(=O)[C@H](CCC(=O)O)NC(=O)[C@H](CC(C)C)NC(=O)[C@H](Cc2c[nH]cn2)NC(=O)[C@H]([C@@H](C)O)NC(=O)[C@H](CCC(N)=O)NC(=O)CNC(=O)[C@H]2CCCN2C(=O)[C@H](CCC(N)=O)NC(=O)[C@H]([C@@H](C)O)NC(=O)[C@H](C(C)C)NC(=O)[C@H](CCCNC(=N)N)NC1=O [compound 77] (cyclo(THLETTFTGDGPKTIRVTQ[dP]GQ))
pKi: 5.84

87 (THLXTTFTGDGTPKTIRVTQPGQ; cyclized peptide; (4)..(4) X is N-Me-E; (21)..(21) is D-AA) [compound 87]
Ki: N.B.

Cyclo-(THLESTFTGDGTPKTIRVTQpG(Qα)) (cyclo(THLESTFTGDGTPKTIRVTQ[dP]GQ); SMILES CC[C@H](C)[C@@H]1NC(=O)[C@H]([C@@H](C)O)NC(=O)[C@H](CCCCN)NC(=O)[C@@H]2CCCN2C(=O)[C@H]([C@@H](C)O)NC(=O)CNC(=O)[C@H](CC(=O)O)NC(=O)CNC(=O)[C@H]([C@@H](C)O)NC(=O)[C@H](Cc2ccccc2)NC(=O)[C@H]([C@@H](C)O)NC(=O)[C@H](CO)NC(=O)[C@H](CCC(=O)O)NC(=O)[C@H](CC(C)C)NC(=O)[C@H](Cc2c[nH]cn2)NC(=O)[C@H]([C@@H](C)O)NC(=O)[C@H](CCC(N)=O)NC(=O)CNC(=O)[C@H]2CCCN2C(=O)[C@H](CCC(N)=O)NC(=O)[C@H]([C@@H](C)O)NC(=O)[C@H](C(C)C)NC(=O)[C@H](CCCNC(=N)N)NC1=O) [SEQ ID NO: 52]
fold lowered (decreased) binding affinity of the cyclic peptide: 7 fold

CC[C@H](C)[C@@H]1NC(=O)[C@H]([C@@H](C)O)NC(=O)[C@H](CCCCN)NC(=O)[C@@H]2CCCN2C(=O)[C@H]([C@@H](C)O)NC(=O)CNC(=O)[C@H](CC(=O)O)NC(=O)CNC(=O)[C@H]([C@@H](C)O)NC(=O)[C@H](Cc2ccccc2)NC(=O)[C@H]([C@@H](C)O)NC(=O)[C@H]([C@@H](C)O)NC(=O)[C@H](CCC(=O)O)NC(=O)[C@H](CC(C)C)NC(=O)[C@H](Cc2c[nH]cn2)NC(=O)[C@H]([C@@H](C)O)N(C)C(=O)[C@H](CCC(N)=O)NC(=O)CNC(=O)[C@H]2CCCN2C(=O)[C@H](CCC(N)=O)NC(=O)[C@H]([C@@H](C)O)NC(=O)[C@H](C(C)C)NC(=O)[C@H](CCCNC(=N)N)NC1=O [SEQ ID NO: 84]
fold lowered (decreased) binding affinity of the cyclic peptide: 5 fold

85 (TXLETTFTGDGTPKTIRVTQPGQ; cyclized peptide; (2)..(2) X is N-Me-H; (21)..(21) is D-AA) [compound 85]
Ki: N.B.

Cyclo-(THLEATFTGDGTPKTIRVTQpG(Qα)) (cyclo(THLEATFTGDGTPKTIRVTQ[dP]GQ); SMILES CC[C@H](C)[C@@H]1NC(=O)[C@H]([C@@H](C)O)NC(=O)[C@H](CCCCN)NC(=O)[C@@H]2CCCN2C(=O)[C@H]([C@@H](C)O)NC(=O)CNC(=O)[C@H](CC(=O)O)NC(=O)CNC(=O)[C@H]([C@@H](C)O)NC(=O)[C@H](Cc2ccccc2)NC(=O)[C@H]([C@@H](C)O)NC(=O)[C@H](C)NC(=O)[C@H](CCC(=O)O)NC(=O)[C@H](CC(C)C)NC(=O)[C@H](Cc2c[nH]cn2)NC(=O)[C@H]([C@@H](C)O)NC(=O)[C@H](CCC(N)=O)NC(=O)CNC(=O)[C@H]2CCCN2C(=O)[C@H](CCC(N)=O)NC(=O)[C@H]([C@@H](C)O)NC(=O)[C@H](C(C)C)NC(=O)[C@H](CCCNC(=N)N)NC1=O) [SEQ ID NO: 59]
effect on interaction with PSD-95-PDZ2 (in words): abolishes binding

CC[C@H](C)[C@@H]1NC(=O)[C@H]([C@@H](C)O)NC(=O)[C@H](CCCCN)NC(=O)[C@H]2CCCN2C(=O)[C@H]([C@@H](C)O)NC(=O)CNC(=O)[C@H](CC(=O)O)NC(=O)CNC(=O)[C@H]([C@@H](C)O)NC(=O)[C@H](Cc2ccccc2)NC(=O)[C@H]([C@@H](C)O)NC(=O)[C@H]([C@@H](C)O)NC(=O)[C@H](CCC(=O)O)NC(=O)[C@H](CC(C)C)NC(=O)[C@H](Cc2c[nH]cn2)NC(=O)[C@H]([C@@H](C)O)NC(=O)[C@H](CCC(N)=O)NC(=O)CNC(=O)[C@H]2CCCN2C(=O)[C@H](CCC(N)=O)NC(=O)[C@H]([C@@H](C)O)NC(=O)[C@H](C(C)C)NC(=O)[C@H](CCCNC(=N)N)NC1=O [compound 122]
pKi: 5.17
